Reference: patent US11160814B1, “Methods of treatment for disease from coronavirus exposure” (Ensemble Group Holdings, priority 2020, dated 2021)

Tested on: SARS-CoV-2
Assay: Pirfenidone and nintedanib therapy during post-acute phase in patients with severe SARS2 lung damage (Example 3)
Assay type: in vivo, human
Conditions: one patient
From the text: Pirfenidone and Nintedanib therapy during the post-acute phase mitigates functional and structural lung loss, preserves lung function and structure, and can improve lung capacity and exertional tolerance in patients previously infected SARS2 with significant pulmonary functional and structural loss as a result of their severe infections. This transition period can be determined in any number of ways including but not limited to laboratory, blood serum, urine, fecal, sputum, bronchial lavage, imaging, genomic or tissue-based testing. These patients can also be characterized in one embodiment as those patients with prolonged hospitalization due to lung disease, prolonged ventilation, course of ECMO, high peaks during hospitalization 1.5 times above the upper of normal for LDH, or Ferritin, or CRP, >30% loss in pulmonary capacity or pulmonary reserve, significant scarring and/or fibrosis seen by CT imaging, MRI, PET imaging or chest x-ray, significant reductions in physiological and functional measures as assessed by the objective physiologic and functional assessments described above, and/or a progressive or worsening pattern of any of such measures over time. During this period, pharmacologic agents and combinations as disclosed herein can be administered to limit, contain, or restrain or reduce such damage and limit the progression of severe SARS2 associated lung damage as described above both physiologically functionally and structurally. A patient with severe clinical COVID symptoms and severe lung damage, and >40% loss of pulmonary reserve by objective testing was treated with pirfenidone starting 1 month after discharge. […] A similar patient was treated with a 50% loss of pulmonary reserve.

[1] = severe COVID, >40% loss of pulmonary reserve, treatment from 1 month after discharge, at 3 months

`COC(=O)c1ccc2c(c1)NC(=O)/C2=C(\Nc1ccc(N(C)C(=O)CN2CCN(C)CC2)cc1)c1ccccc1` [nintedanib] was tested, and the “structural and physiologic declines” value (50% loss of pulmonary reserve, initiated two months post-discharge, at 4 months) was “stabilized and arrested”.
With `Cc1ccc(=O)n(-c2ccccc2)c1` [pirfenidone] the PFTs [1] was “improvement” and the “progression of structural lung damage by high-resolution CT (HRCT) imaging” value [1] was “reduction in progression”.
